The target in one test is T1, human CCK-B R (Homo sapiens, UniProt P32239).
T1 construct: expressed in transfected cells
T1 sequence (P32239 1-447): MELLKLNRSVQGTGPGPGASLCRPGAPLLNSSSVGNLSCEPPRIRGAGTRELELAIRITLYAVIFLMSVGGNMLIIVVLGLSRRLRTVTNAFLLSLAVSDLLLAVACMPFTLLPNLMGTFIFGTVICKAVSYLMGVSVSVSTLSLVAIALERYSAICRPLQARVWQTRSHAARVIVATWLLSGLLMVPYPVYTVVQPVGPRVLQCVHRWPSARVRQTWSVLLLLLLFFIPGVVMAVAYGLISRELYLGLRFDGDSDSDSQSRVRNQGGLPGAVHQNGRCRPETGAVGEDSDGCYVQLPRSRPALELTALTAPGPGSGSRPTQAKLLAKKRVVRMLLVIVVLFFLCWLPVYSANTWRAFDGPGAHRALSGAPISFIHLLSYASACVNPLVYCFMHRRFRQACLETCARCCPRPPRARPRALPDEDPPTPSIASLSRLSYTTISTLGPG
In words: Human CCK-B receptor efficacy assay (AlphaScreen SureFire p-ERK). It is filed as cell-based. The following applies: read-out: hCCK-B R EC50. (In Alpha technology, singlet oxygen from a donor bead excites a nearby acceptor bead.)

The next test deals with T2, human GLP-1 R (Homo sapiens, UniProt P43220).
T2 construct: expressed in transfected cells
In words: Human GLP-1 receptor efficacy assay (cAMP induction, FlashPlate). It is filed as cell-based. Particulars: read-out: hGLP-1 R EC50. How it is done: On the day of analysis, growth medium was removed and the cells were washed once with 200 μl Tyrode buffer [Tyrode's Salts (9.6 g/l), 10 mM HEPES, pH 7.4]. […] The reaction was stopped by addition of 25 μl 0.5 M HCl and incubated on ice for 60 min.

pEC50: −log10 of the molar value. Like-named read-outs stand apart in the source and are kept apart here. Numbered stars: 1 amine (or outer) side, 2 acyl side, 3 side chain; on linkers, the order of the positions; unused ones are H or OH. Square brackets hold non-standard residues; d marks the D form. Side chains are listed from the residue outwards. Peptide text beside a SMILES is read from it. * marks the point of attachment. γGlu = O=C(O)[C@H](CCC(=O)[*:2])N[*:1]; Palmitoyl = CCCCCCCCCCCCCCCC(=O)*; AEEA = NCCOCCOCC(=O)O

T2 sequence (P43220 24-463): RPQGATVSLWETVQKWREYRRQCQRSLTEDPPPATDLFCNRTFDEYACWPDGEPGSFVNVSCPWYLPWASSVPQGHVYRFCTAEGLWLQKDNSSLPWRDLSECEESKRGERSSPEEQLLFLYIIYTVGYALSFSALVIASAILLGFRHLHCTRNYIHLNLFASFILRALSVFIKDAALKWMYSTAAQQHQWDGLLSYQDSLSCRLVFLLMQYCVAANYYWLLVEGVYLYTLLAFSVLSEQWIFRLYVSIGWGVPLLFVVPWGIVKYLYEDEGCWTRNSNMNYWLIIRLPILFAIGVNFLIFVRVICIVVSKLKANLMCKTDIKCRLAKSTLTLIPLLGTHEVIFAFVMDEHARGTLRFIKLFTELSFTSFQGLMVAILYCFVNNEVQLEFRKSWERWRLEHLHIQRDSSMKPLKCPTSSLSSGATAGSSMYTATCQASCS

Take `CCCCCCCCCCCCCCCC(=O)N[C@@H](CCC(=O)NCCCC[C@H](NC(=O)CNC(=O)[C@H](CCCNC(=N)N)NC(=O)[C@@H](NC(=O)[C@H](CC(C)C)NC(=O)[C@H](Cc1c[nH]c2ccccc12)NC(=O)[C@H](C)NC(=O)[C@@H](NC(=O)[C@H](Cc1ccccc1)NC(=O)[C@H](CCC(=O)O)NC(=O)[C@H](CCCNC(=N)N)NC(=O)[C@H](C)NC(=O)[C@H](C)NC(=O)[C@H](CCC(N)=O)NC(=O)CNC(=O)[C@H](CCC(=O)O)NC(=O)[C@H](CC(C)C)NC(=O)[C@H](Cc1ccc(O)cc1)NC(=O)[C@H](CO)NC(=O)[C@H](CO)NC(=O)[C@@H](NC(=O)[C@H](CC(=O)O)NC(=O)[C@H](CO)NC(=O)[C@@H](NC(=O)[C@H](Cc1ccccc1)NC(=O)[C@@H](NC(=O)CNC(=O)[C@H](CCC(=O)O)NC(=O)[C@H](C)NC(=O)[C@@H](N)Cc1c[nH]cn1)[C@@H](C)O)[C@@H](C)O)C(C)C)[C@@H](C)CC)C(C)C)C(=O)NCC(=O)NCCOCCOCC(=O)NCCOCCOCC(=O)N[C@@H](Cc1ccc(O)cc1)C(=O)NCC(=O)N[C@@H](Cc1c[nH]c2ccccc12)C(=O)N[C@@H](CC(C)C)C(=O)N[C@@H](CC(=O)O)C(=O)N[C@@H](Cc1ccccc1)C(N)=O)C(=O)O` [Compound 108, [Arg26,34,Lys(Hexadecanoyl-isoGlu)36]GLP-1(7-37)-Peg3-Peg3-[Leu4]Gastrin6] (H-HAEGTFTSDVSSYLEGQAAREFIAWLVRGK([γGlu-Palmitoyl])G[AEEA][AEEA]YGWLDF-NH2): the negative-log EC50 (pEC50) on human CCK-B R (Table 3) was 7.11; at human GLP-1 R (Table 3), 9.96.
Turning to “H-HGEGTFTSELSKYLEEEAVRLFIEFLKYGWLDF-NH2 [Compound 101, [Glu9,Leu14,Phe25,Tyr13]Exendin-4(1-27)-[Leu4]Gastrin6]”, the values for the negative-log EC50 (pEC50) on human CCK-B R (Table 2) and at human GLP-1 R (Table 2) were 7.52 and 9.96, respectively.
Consider `CCCCCCCCCCCCCCCC(=O)N[C@@H](CCC(=O)NCCCC[C@H](NC(=O)[C@H](C)NC(=O)[C@H](C)NC(=O)[C@H](CCC(N)=O)NC(=O)CNC(=O)[C@H](CCC(=O)O)NC(=O)[C@H](CC(C)C)NC(=O)[C@H](Cc1ccc(O)cc1)NC(=O)[C@H](CO)NC(=O)[C@H](CO)NC(=O)[C@@H](NC(=O)[C@H](CC(=O)O)NC(=O)[C@H](CO)NC(=O)[C@@H](NC(=O)[C@H](Cc1ccccc1)NC(=O)[C@@H](NC(=O)CNC(=O)[C@H](CCC(=O)O)NC(=O)C(C)(C)NC(=O)[C@@H](N)Cc1c[nH]cn1)[C@@H](C)O)[C@@H](C)O)C(C)C)C(=O)N[C@@H](CCC(=O)O)C(=O)N[C@@H](Cc1ccccc1)C(=O)N[C@H](C(=O)N[C@@H](C)C(=O)N[C@@H](Cc1c[nH]c2ccccc12)C(=O)N[C@@H](CC(C)C)C(=O)N[C@H](C(=O)N[C@@H](CCCNC(=N)N)C(=O)NCC(=O)N[C@@H](CCCNC(=N)N)C(=O)NCC(=O)NCCOCCOCC(=O)NCCOCCOCC(=O)N[C@@H](Cc1ccc(O)cc1)C(=O)NCC(=O)N[C@@H](Cc1c[nH]c2ccccc12)C(=O)N[C@@H](CC(C)C)C(=O)N[C@@H](CC(=O)O)C(=O)N[C@@H](Cc1ccccc1)C(N)=O)C(C)C)[C@@H](C)CC)C(=O)O` [Compound 111, [Aib8,Arg34,Lys(Hexadecanoyl-isoGlu)26]GLP-1(7-37)-Peg3-Peg3-[Leu4]Gastrin6], for which the pEC50 was 7.23 at human CCK-B R (Table 3) and 10.06 at human GLP-1 R (Table 3).

Broadly, the pEC50 is −log10 of the EC50, conventionally taken in molar units.

The values are drawn from patent US10406207B2, “Peptide conjugates of GLP-1 receptor agonists and gastrin and their use” (priority 2010, dated 2019).
